Assay results published in US20260083697A1, “COMPOSITION AND USE OF SAME FOR CONTROLLING INFECTIONS IN AQUATIC ORGANISMS” (priority 2022, published 2026).

Experiments:
fish = experiment: Toxicity of commercial fatty acid ethyl esters to fish over 48 h; type: in vivo; conditions: at least 48 h
Gyrodactylus turnbulli = type: cell-based; conditions: for antiparasitic activity of pure commercial ethyl ester: commercial ethyl ester form, Kolliphor and sonication
Description: FIGS. 2A-2C include graphs showing antiparasitic effect of residue extract and preparations (FFA & FAEE) with and without the addition of the food-grade detergent Kolliphor (K) and sonication(S) prior to analysis. […] Gyrodactylus turnbulli was exposed to the following preparations: (2A) residue extract (RE) and RE with Kolliphor and sonication (RE-K-S); (2B) FFA and FFA with Kolliphor and sonication (FFA-K-S); and (2C) FAEE with Kolliphor and sonication (FAEE-K-S). The numbers represent the tested concentrations of the solution applied at μL mL^−1. n=3 wells with at least five observed parasites per well.
FIG. 5 includes a vertical bar graph showing dose-dependent antiparasitic effect of fatty acids in their ethyl ester form as tested in situ. Selected were the four FAs that appeared at the highest level in the residue and its extracts and preparations, as pure commercial compounds: myristic acid (14:0), palmitic acid (16:0), palmitoleic acid (16:1n7), and EPA (20:5n3). The analysis was carried out with the addition of Kolliphor (K) and sonication (S). Time to reach 50% parasite mortality was recorded.
FIG. 11A-11B include graphs showing in-situ antiparasitic effect against Gyrodactylus by commercial FAEEs. Gyrodactylus was exposed by commercial FAEEs at 18.75, 37.5, and 75 μM along with addition of 1% Kolliphor (K) and sonication(S).
An in-situ assay was carried out, as described previously (Kim et al., 2021). Briefly, infected guppies (as confirmed by observation under a stereomicroscope (Richards and Chubb 1996)) were anesthetized with 250 ppm of Sedanol (Stockton-Aquamor Ltd., Israel) (Zorin et al., 2019) followed by euthanasia (brain pithing). Tail fin clips with more than four parasites were excised and transferred, using watchmaker's forceps, to a single well of a 24-well plate containing standardized water (STW: dechlorinated tap water with Na2S2O3 at 0.37 mg L^−1 followed by autoclaving). Ethanol and STW, as well as the relevant solvents and preparation protocol used for extraction, were used as negative controls in each trial. Parasites were observed under an inverted microscope (Axiovert 40 CFL, Carl Zeiss AG) for 4 h, at intervals ranging from 5 to 30 min, during which detached and dead parasites were recorded. A total of 12-15 parasites (with three replicates) were analyzed for each treatment concentration.
Residue extract and preparations were tested at the following concentrations: residue extract at 2.5, 5 and 10 μL mL^−1, and FFA and FAEE at 2.5 and 5 μL mL^−1 (in ethanol). Selected pure active compounds were analyzed, based on the analysis of the FAEE composition. These included the ethyl esters of the following fatty acids: myristic acid (14:0), palmitic acid (16:0), palmitoleic acid (16:1n7), and EPA ([…]) (obtained from Nu-Check, USA). Tested concentrations were calculated based on the amount of active compound in the FA profile of ethyl esters according to the GC-results.

SMILES	antiparasitic activity of pure commercial ethyl ester (Gyrodactylus turnbulli)	toxicity to fish (fish; 7.3 μM to 14.5 μM)	also measured
CCCCCCCCC(=O)OCC [9:0, ethyl nonanoate]	–	–	toxicity to fish (fish; 18.75 μM to 37.5 μM): non-toxic
CCCCCCCCCC(=O)OCC [10:0, ethyl decanoate]	–	–	toxicity to fish (fish; 18.75 μM to 37.5 μM): non-toxic
CCCCCCCCCCCC(=O)OCC [12:0, ethyl laurate]	–	–	toxicity to fish (fish; 9.375 μM to 37.5 M): non-toxic
CCCCCCCCCCCCCC(=O)OCC [14:0, ethyl myristate]	activity	non-toxic	–
CCCCCCCCCCCCCCCC(=O)OCC [16:0, ethyl palmitate]	activity	non-toxic	–
CCCCC/C=C\C/C=C\CCCCCCCC(=O)OCC [18:2n6, ethyl linoleate]	–	non-toxic	–
CC/C=C\C/C=C\C/C=C\CCCCCCCC(=O)OCC [18:3n3, ethyl alpha linolenate]	–	non-toxic	–
CCCCC/C=C\C/C=C\C/C=C\CCCCC(=O)OCC [18:3n6, ethyl gamma linolenate]	–	non-toxic	–
CC/C=C\C/C=C\C/C=C\C/C=C\C/C=C\CCCC(=O)OCC [20:5n3]	activity	non-toxic	effect on the parasite at low concentrations (Gyrodactylus turnbulli; 3 and 6 μL mL^−1): inducing parasite mortality; dose dependence of antiparasitic effect (Gyrodactylus turnbulli; 3 to 24 μL mL^−1): dose-dependent effect; relative activity (time to 50% parasite mortality) (Gyrodactylus turnbulli; 12 and 24 μL mL^−1, compared with the other three FAEEs): most active
